Test results from ChEMBL document CHEMBL2074241, “Characterization of binding properties to human P-glycoprotein: development of a [3H]verapamil radioligand-binding assay” (J Pharmacol Exp Ther, 1999).

Target: ATP-dependent translocase ABCB1 (Homo sapiens, UniProt P08183)
Assay: TP_TRANSPORTER: inhibition of Verapamil binding in membranes from Vinblastine-induced Caco-2 cells
Format: functional, cell membranes, Membrane

Sequence of ATP-dependent translocase ABCB1 (P08183 whole entry): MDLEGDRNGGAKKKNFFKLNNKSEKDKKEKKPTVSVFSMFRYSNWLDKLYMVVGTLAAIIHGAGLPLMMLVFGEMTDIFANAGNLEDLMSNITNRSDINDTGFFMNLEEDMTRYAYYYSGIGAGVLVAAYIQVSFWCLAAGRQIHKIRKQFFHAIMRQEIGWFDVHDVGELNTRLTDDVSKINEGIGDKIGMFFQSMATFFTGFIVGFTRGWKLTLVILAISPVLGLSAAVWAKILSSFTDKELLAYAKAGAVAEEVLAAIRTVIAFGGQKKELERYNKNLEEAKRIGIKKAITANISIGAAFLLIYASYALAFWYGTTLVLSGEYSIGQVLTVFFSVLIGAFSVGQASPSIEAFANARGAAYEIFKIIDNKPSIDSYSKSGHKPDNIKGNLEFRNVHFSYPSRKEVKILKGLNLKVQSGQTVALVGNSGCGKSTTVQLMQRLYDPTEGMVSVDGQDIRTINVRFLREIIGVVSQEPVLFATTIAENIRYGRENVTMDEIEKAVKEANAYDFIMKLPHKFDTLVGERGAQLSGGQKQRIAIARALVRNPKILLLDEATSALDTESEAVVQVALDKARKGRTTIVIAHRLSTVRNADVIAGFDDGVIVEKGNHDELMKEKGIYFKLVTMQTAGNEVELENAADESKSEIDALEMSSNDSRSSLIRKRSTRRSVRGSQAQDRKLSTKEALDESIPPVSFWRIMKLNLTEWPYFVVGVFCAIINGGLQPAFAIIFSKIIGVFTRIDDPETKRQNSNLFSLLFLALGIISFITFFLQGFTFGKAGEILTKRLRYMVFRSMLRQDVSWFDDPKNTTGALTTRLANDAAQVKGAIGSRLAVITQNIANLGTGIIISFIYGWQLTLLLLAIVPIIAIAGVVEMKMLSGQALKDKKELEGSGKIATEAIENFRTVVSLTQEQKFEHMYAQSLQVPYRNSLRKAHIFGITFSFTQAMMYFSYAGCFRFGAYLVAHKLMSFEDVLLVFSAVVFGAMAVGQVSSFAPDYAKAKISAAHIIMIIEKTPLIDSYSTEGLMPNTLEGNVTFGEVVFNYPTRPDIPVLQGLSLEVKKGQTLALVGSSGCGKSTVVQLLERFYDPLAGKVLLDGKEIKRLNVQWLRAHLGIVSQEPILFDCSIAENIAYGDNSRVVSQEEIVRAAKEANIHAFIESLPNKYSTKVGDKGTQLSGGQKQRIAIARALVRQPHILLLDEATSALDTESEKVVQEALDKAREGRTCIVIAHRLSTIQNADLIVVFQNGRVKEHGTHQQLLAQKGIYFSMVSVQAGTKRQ

Row | Ki (read-out: Ki1) | Ki (read-out: Ki2) | SMILES
1 | 110 nM | 3400 nM | COC(=O)c1ccccc1-c1c2ccc(=N)cc-2oc2cc(N)ccc12 [RHODAMINE123]
2 | 470 nM | 148000 nM | CC[C@]1(O)C[C@H]2CN(CCc3c([nH]c4ccccc34)[C@@](C(=O)OC)(c3cc4c(cc3OC)N(C=O)[C@H]3[C@@](O)(C(=O)OC)[C@H](OC(C)=O)[C@]5(CC)C=CCN6CC[C@]43[C@@H]65)C2)C1 [VINCRISTINE]
